In this experiment the test system is highly tumorigenic variant of the M-3 cells. The class given is in vivo, mice.

For the sequence “LFEAIEGFI [Leu Phe Glu Ala Ile Glu Gly Phe Ile, viral peptide derived from the influenza virus haemagglutinin, H2-K^d-ligand, used as foreign peptide to charge tumour cells]”, the animals cured (cells charged with peptide using TfpL/DNA complexes) is recorded as 6 out of 8. Where the note is “peptide simply mixed with the cells (adjuvant)”, the animals developed tumours is given as 7 out of 8.
